Measured values as given in patent US20100087476A1, “PHARMACEUTICAL COMPOUNDS” (Biovail Laboratories International (Barbados) S.R.L., priority 2008, published 2010).

Tests used:
Assay type in all cases: in vivo, BALB/c mice
[1] = tested on: OVA-sensitised mice; assay: Differential cell counts in bronchial lavage fluid (BAL), chicken ovalbumin parenteral sensitization model of asthma
Excerpt: (§1) An animal model of asthma was used in this study that included parenteral sensitisation of mice with chicken ovalbumin (OVA) together with a suitable adjuvant (Alum). Ovalbumin is widely used as an antigen as a result of its availability and ability to induce a good Th2-type immune response due to lack of any previous exposure to this antigen. Repeated aerosol exposure to ovalbumin post-sensitisation triggers airway changes leading to hyper-responsiveness, similar to that seen in asthma. These changes can be measured following challenge with a bronchoconstricting agent such as methacholine and analysed using whole body plethysmography. Pulmonary plethysmography is used to measure the functional residual capacity (FRC) of the lungs—the volume in the lungs when the muscles of respiration are relaxed—and total lung capacity. The degree of bronchochonstriction (BHR) can be expressed as enhanced pause (Pen H), a calculated value which correlates with measurement of airway resistance, impedance and intrapleural pressure in the same mouse.
In addition, allergy can by analysed by examination of changes in the lung and lung fluid. This can be achieved by histopathological analysis of lung tissue and analysis of the cellular infiltrate in bronchial lavage fluid (BAL). Further, additional markers of allergy such as the presence of cytokines associated with allergy, IL-4 and IL-13 can be analysed in the BAL fluid.
(§2) Groups of 8 BALB/c mice aged between 5 and 8 weeks of age were sensitised by i.p. (intraperitoneal) injection with ovalalbumin (OVA) in alum on days 0 and 14 (except Group A). All animals were challenged by aerosol exposure to 5% OVA for 20 minutes daily from days 18 to 23. Treatments were given by oral gavage twice daily from day 14 to day 24. At termination (day 24), all animals were subjected to unrestrained whole body plethysmography (whole-body plethysmograph Buxco Electronics, Troy, US) during exposure to increasing doses of methacholine leading to bronchoconstriction and hyper-responsiveness. These changes can be measured using the Buxco software to determine the PenH values for each animal. BAL fluids were collected and cytospins prepared and counted differentially for the presence of infiltrating cells. The supernatant from the BAL was retained and stored at ^−80° C. for possible cytokine analysis. […]
Mice were terminated by i.p. injection of euthatal, the trachea exposed and cells obtained from the lungs by performing bronchoalveolar lavage, 3×0.4 ml with PBS. The lavage was pooled, cells counted using a nucleocounter, pelletted and resuspended at 5×10^5 cells per ml. […]
A minimum of 5 areas were counted on each slide. Each cell type was counted and percentage cell numbers determined From this the number of cells/BAL was determined.

[2] = tested on: OVA-sensitised mice; assay: Unrestrained whole body plethysmography (PenH) during methacholine exposure, chicken ovalbumin parenteral sensitization model of asthma
Excerpt: as §1
Pen H is calculated from the relationship Pen H=(Te/Tr−1)×(Pef/Pif) where;
as §2

[3] = tested on: OVA-sensitised mice; assay: Lung histopathology scores (pulmonary inflammation), chicken ovalbumin parenteral sensitization model of asthma; conditions: 1 to 20 mg/kg twice daily oral gavage; probable dose-effect
Method: Groups of 8 BALB/c mice aged between 5 and 8 weeks of age were sensitised by i.p. (intraperitoneal) injection with ovalalbumin (OVA) in alum on days 0 and 14 (except Group A). All animals were challenged by aerosol exposure to 5% OVA for 20 minutes daily from days 18 to 23. Treatments were given by oral gavage twice daily from day 14 to day 24. At termination (day 24), all animals were subjected to unrestrained whole body plethysmography (whole-body plethysmograph Buxco Electronics, Troy, US) during exposure to increasing doses of methacholine leading to bronchoconstriction and hyper-responsiveness. These changes can be measured using the Buxco software to determine the PenH values for each animal. BAL fluids were collected and cytospins prepared and counted differentially for the presence of infiltrating cells. The supernatant from the BAL was retained and stored at ^−80° C. for possible cytokine analysis. Further, lungs were removed and placed in 10% buffered formalin for possible histopathology. […] The HE-stained sections were assessed for lung inflammation. Each lung was scored as described below. Samples were scored in blinded fashion, without knowledge of the experimental protocol or identity of groups. A semi-quantitative grading system was used to describe the degree of inflammatory change in the lungs. Descriptive comments (nature of cellular infiltration) were also recorded. […]

[4] = across 1, 10 and 20 mg/kg twice daily oral gavage, day 14-24
[5] = highest dose, 20 mg/kg twice daily oral gavage (Group E)
[6] = two lower doses (1 and 10 mg/kg twice daily oral gavage, Groups C and D)

COc1cc2c(cc1OC)[C@H]1C[C@H](O)[C@@H](CC(C)C)CN1CC2 (single isomer, unassigned) [Isomer B]
levels of eosinophil infiltration into the lung [1, 4]: dose dependent effect | effect on lung cell infiltration [1, 5]: small | eosinophil numbers in the BAL [1, 5]: associated reduction in eosinophil numbers in the BAL | levels of eosinophil infiltration into the lung [1, 6]: no clear difference between treated and untreated animals | PenH response to methacholine [2, 4]: dose dependent effect | airway hyper-responsiveness (PenH) [2, 5]: reduced airway hyper-responsiveness to levels just above those of the budesonide controls | PenH response to methacholine [2, 6]: no clear difference between treated and untreated animals | lung pathology (mean group histopathological score) [3]: significant amelioration of pathology
